Experiments:
Format in all cases: cell-based, human
[1] = test system: TROY; assay: Western blot of TROY expression after PPF treatment
Procedure: FIG. 24A—a Western blot analysis of TROY expression in T98G cells. Cells were treated with PPF at indicated concentrations for 6 hrs, lysed, and cell lysates immunoblotted with anti-TROY antibody. Immunoblotting of α-Tubulin in cell lysates is included as a loading control. FIG. 24B—Western blot analysis of TROY expression in T98G, GBM43, and GBM10 cells. Cells were treated with PPF at indicated concentrations for 24 hrs, lysed, and cell lysates immunoblotted with anti-TROY and α-Tubulin antibodies. FIG. 24C—Western Blot analysis of TROY expression in GBM10 and GBM43 primary glioma cells. Cells were treated with 5 μM PPF, lysed at the indicated time-points, and the lysates immunoblotted with an anti-TROY antibody. Immunoblotting of β-Actin in cell lysates is included as a loading control. FIG. […]—Western Blot analysis of T98G, GBM10 and GBM43 glioma cells treated with 5 μM PPF for 24 hours. Lysates were immunoblotted with anti-TROY, anti-TNFR1, anti-EGFR, and β-Actin antibodies.
Referring now to FIGS. 24A, 24B, 24C, and 24D: The inventors investigated if PPF could be utilized pharmacologically to decrease TROY expression in GBM cells. The long-term established cell line T98G was first utilized to test the efficacy of PPF. Cells were treated with increasing concentration of PPF, 1 to 20 μM lysed, and TROY expression assessed by immunobloting. Briefly, monolayers of cells were washed in phosphate-buffered saline (PBS) containing 1 mM phenylmethylsulfonylfluoride and 1 mM sodium orthovanadate and then lysed in 2×SDS sample buffer containing protease and phosphatase inhibitors. Protein concentrations were determined using the BCA Assay (Pierce). Thirty micrograms of total protein was loaded per lane and separated by SDS-PAGE. After transfer, the nitrocellulose membrane (Invitrogen) was blocked with either 5% nonfat-milk or 5% BSA in TB ST before addition of primary antibodies and followed with peroxidase-conjugated secondary antibody (Promega). Protein bands were detected using SuperSignal® Chemiluminescent Substrate (Pierce) with a UVP BioSpectrum 500 Imaging System.

[2] = test system: T98G, GBM10, and GBM43 cells; assay: CellTiterGlo cytotoxicity assay; conditions: 0.5 to 20 μM PPF, 72 hours
Procedure: (§1) FIG. 25A—T98G, GBM43, and GBM10 cells were incubated with increasing concentrations of PPF (0, 5, 50, and 500 After 0, 48, 96 and 144 hours of treatment, cell were trypsinized and counted using an automated cell counter. FIG. 25B—GBM43, GBM10, and T98G glioma cells were treated with increasing doses of PPF (0.5, 1, 5, 10, and 20 μM) in triplicate. The CellTiterGlo® (Promega) reagent was used to measure survival. Raw values were normalized on a plate-by-plate basis such that 100% cell viability was equivalent to the mean of vehicle wells and 0% cell viability was equivalent to the mean of the MG132 positive control. The normalized data was used to assess viability of glioma cells after PPF treatment.
(§2) Referring now to FIGS. 25A and 25B: To determine if PPF influences glioma cell proliferation, the inventors treated T98G, GBM10, and GBM43 cells with increasing concentrations of PPF and evaluated cell proliferation over the course of 144 hours. Briefly, 1.25×10^5 cells were seeded (n=3) in 12-well plates in 1 mL of DMEM supplemented with 10% FBS and allowed to attach at 37° C. for 16 hrs. […] After 0, 48, 96 and 144 hours of treatment, the cells were trypsinized and counted using the automated cell counter. […] Subsequently, 100 μL of CellTiterGlo® reagent was added to each well and luminescence was measured using Envision Reader. […]

[3] = test system: T98G, GBM10, and GBM43 cells; assay: Cell proliferation by automated cell counting; conditions: 5, 50, 500 μM PPF, up to 144 hours
Procedure: as §1, §2

[4] = test system: NF-κB; assay: Immunoblot of NF-κB activation after PPF; conditions: T98G and GBM43 cells treated with PPF
Procedure: FIGS. 26A, 26B, and 26C depict that PPF sensitizes GBM cells to TMZ and radiotherapy. FIG. 26A—A clonogenic assay was used to assess T98G and GBM43 cells survival after TMZ and radiation treatment. Cells were pre-treated with 5 μM PPF for 24 hours, and then either treated with 250 μM TMZ for 24 hours or exposed to 2 Gy radiation. Graph depicts the surviving fraction in the treated cells compared to vehicle (VC) treated or non-treated (NT) cells, **p<0.01. FIG. 26B—T98G glioma cells were treated with vehicle, PPF (5 μM) TMZ (250 μM) and PPF in combination with TMZ. TMZ-induced apoptosis was assayed by immunoblot analysis of cell lysates with an antibody to cleaved PARP. Immunoblotting for α-Tubulin was included as a loading control. FIG. 26C—T98G, GBM10, and GBM43 cells were treated with PPF ([…], and then immunoblotted to assess the activation of AKT and NF-κB. Immunoblotting for β-Actin is included as a loading control.
Referring now to FIGS. 26A, 26B, and 26C: Knockdown of TROY expression with shRNA decreases TMZ resistance in GBM cells in vitro (See Reference 42). […] Following combination therapy, cells were trypsinized, counted, and plated in a 6-well culture dish at densities of 100, 250, and 500 cells per well in triplicate. Cells were incubated for 12 days then fixed, stained with 0.5% crystal violet solution, and counted manually by blinded observers. […]

CCCn1cnc2c1c(=O)n(CCCCC(C)=O)c(=O)n2C [PPF, 3-methyl-1-(5-oxohexyl)-7-propyl-3,7-dihydro-1H-purine-2,6-dione]
TROY expression over time ([1]; GBM10 and GBM43 cells, 5 μM PPF, varying lengths of time): decreased in a time-dependent manner
TROY expression ([1]; T98G cells, 1 μM PPF): significant suppression
TROY expression ([1]; T98G cells, PPF 1 to 20 μM, 6 hrs): decreased in concentration dependent manner
TROY expression ([1]; T98G, GBM10, GBM43 cells, 5 μM PPF, 24 hrs): effective in lowering TROY expression
cell viability [2]: negligible loss of cell viability
glioma cell proliferation [3]: did not affect the proliferation
NF-κB phosphorylation [4]: effectively decreased

— patent publication US10624895B2, “Methods of sensitizing a patient with glioma to a therapeutic agent by administering small hairpin RNA targeting PDZ-RHOGEF” (THE TRANSLATIONAL GENOMICS RESEARCH INSTITUTE, priority 2016, dated 2020)
